According to PubChem BioAssay AID1963973 (Molecular Pharmacology Branch, DTP, NCI, 2024):

Tested on: 883617-216-R-J1-PDC tumor spheroids, viability
Assay: Anticancer human tumor 883617-216-R-J1-PDC patient-derived bladder carcinoma cell line growth inhibition [PI3K]
Conditions: spheroids with HUVEC and MSC; for IC50: curve of first compound; for viability, T/C: stronger effect = lower value
Method in brief: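 Complex 3D spheroids (cancer cells + endothelial HUVEC + mesenchymal stem cells); drug pairs of targeted agent x inavolisib/alpelisib/duvelisib/copanlisib; half-log series from ~Cmax, max 10 microM if Cmax unknown; endpoint viability.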

[1] = second compound 0.0316 µM, first compound 0.0316 µM
[2] = second compound 0.0316 µM, first compound 0.1 µM
[3] = second compound 0.0316 µM, first compound 0.316 µM
[4] = second compound 0.0316 µM, first compound 1 µM
[5] = second compound 0.0316 µM, first compound 3.16 µM
[6] = second compound 0.0316 µM, first compound 10 µM
[7] = second compound 0.1 µM, first compound 0.0316 µM
[8] = second compound 0.1 µM, first compound 0.1 µM
[9] = second compound 0.1 µM, first compound 0.316 µM
[10] = second compound 0.1 µM, first compound 1 µM
[11] = second compound 0.1 µM, first compound 3.16 µM
[12] = second compound 0.1 µM, first compound 10 µM
[13] = second compound 0.316 µM, first compound 0.0316 µM
[14] = second compound 0.316 µM, first compound 0.1 µM
[15] = second compound 0.316 µM, first compound 0.316 µM
[16] = second compound 0.316 µM, first compound 1 µM
[17] = second compound 0.316 µM, first compound 3.16 µM
[18] = second compound 0.316 µM, first compound 10 µM
[19] = second compound 1 µM, first compound 0.0316 µM
[20] = second compound 1 µM, first compound 0.1 µM
[21] = second compound 1 µM, first compound 0.316 µM
[22] = second compound 1 µM, first compound 1 µM
[23] = second compound 1 µM, first compound 3.16 µM
[24] = second compound 1 µM, first compound 10 µM
[25] = second compound 3.16 µM, first compound 0.0316 µM
[26] = second compound 3.16 µM, first compound 0.1 µM
[27] = second compound 3.16 µM, first compound 0.316 µM
[28] = second compound 3.16 µM, first compound 1 µM
[29] = second compound 3.16 µM, first compound 3.16 µM
[30] = second compound 3.16 µM, first compound 10 µM
[31] = second compound 10 µM, first compound 0.0316 µM
[32] = second compound 10 µM, first compound 0.1 µM
[33] = second compound 10 µM, first compound 0.316 µM
[34] = second compound 10 µM, first compound 1 µM
[35] = second compound 10 µM, first compound 3.16 µM
[36] = second compound 10 µM, first compound 10 µM
[37] = second compound 0.0316 µM, first compound 0.00316 µM
[38] = second compound 0.0316 µM, first compound 0.01 µM
[39] = second compound 0.1 µM, first compound 0.00316 µM
[40] = second compound 0.1 µM, first compound 0.01 µM
[41] = second compound 0.316 µM, first compound 0.00316 µM
[42] = second compound 0.316 µM, first compound 0.01 µM
[43] = second compound 1 µM, first compound 0.00316 µM
[44] = second compound 1 µM, first compound 0.01 µM
[45] = second compound 3.16 µM, first compound 0.00316 µM
[46] = second compound 3.16 µM, first compound 0.01 µM
[47] = second compound 10 µM, first compound 0.00316 µM
[48] = second compound 10 µM, first compound 0.01 µM
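Further: spheroids exposed to agents for 7 days before the viability read.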

Compound: CC(C)NCC(C(=O)N1CCN(c2ncnc3c2C(C)CC3O)CC1)c1ccc(Cl)cc1 (stereo not drawn) + Cc1nc(NC(=O)N2CCCC2C(N)=O)sc1-c1ccnc(C(C)(C)C(F)(F)F)c1
- IC50 (second compound 0.0316 µM): 403 nM
- IC50 (second compound 0.1 µM): 213 nM
- IC50 (second compound 0.316 µM): < 31.6 nM
- IC50 (second compound 1 µM): < 31.6 nM
- IC50 (second compound 3.16 µM): < 31.6 nM
- IC50 (second compound 10 µM): < 31.6 nM
- viability, T/C [1]: 77%
- viability, T/C [2]: 67.7%
- viability, T/C [3]: 57.6%
- viability, T/C [4]: 27.9%
- viability, T/C [5]: 13.8%
- viability, T/C [6]: 8.01%
- viability, T/C [7]: 72.8%
- viability, T/C [8]: 60.1%
- viability, T/C [9]: 45.5%
- viability, T/C [10]: 26.7%
- viability, T/C [11]: 16.2%
- viability, T/C [12]: 6.45%
- viability, T/C [13]: 37.7%
- viability, T/C [14]: 41%
- viability, T/C [15]: 36.6%
- viability, T/C [16]: 22.6%
- viability, T/C [17]: 10.9%
- viability, T/C [18]: 4.92%
- viability, T/C [19]: 30.4%
- viability, T/C [20]: 29.9%
- viability, T/C [21]: 24.4%
- viability, T/C [22]: 15.2%
- viability, T/C [23]: 8.01%
- viability, T/C [24]: 4.96%
- viability, T/C [25]: 17.9%
- viability, T/C [26]: 10.5%
- viability, T/C [27]: 10.3%
- viability, T/C [28]: 9.2%
- viability, T/C [29]: 8.98%
- viability, T/C [30]: 3.73%
- viability, T/C [31]: 7.03%
- viability, T/C [32]: 5.88%
- viability, T/C [33]: 5.22%
- viability, T/C [34]: 5.21%
- viability, T/C [35]: 3.1%
- viability, T/C [36]: 2.33%

Compound: CCN1CCN(Cc2ccc(Nc3ncc(F)c(-c4cc(F)c5nc(C)n(C(C)C)c5c4)n3)nc2)CC1 + Cc1nc(NC(=O)N2CCCC2C(N)=O)sc1-c1ccnc(C(C)(C)C(F)(F)F)c1
- IC50 (second compound 0.0316 µM): 226 nM
- IC50 (second compound 0.1 µM): 26.3 nM
- IC50 (second compound 0.316 µM): 4.15 nM
- IC50 (second compound 1 µM): < 3.16 nM
- IC50 (second compound 3.16 µM): < 3.16 nM
- IC50 (second compound 10 µM): < 3.16 nM
- viability, T/C [37]: 75.7%
- viability, T/C [38]: 64.7%
- viability, T/C [1]: 64.2%
- viability, T/C [2]: 53.8%
- viability, T/C [3]: 49.9%
- viability, T/C [4]: 39.6%
- viability, T/C [39]: 59.7%
- viability, T/C [40]: 56.3%
- viability, T/C [7]: 46.4%
- viability, T/C [8]: 44.4%
- viability, T/C [9]: 44.3%
- viability, T/C [10]: 36.3%
- viability, T/C [41]: 53.3%
- viability, T/C [42]: 39.7%
- viability, T/C [13]: 37%
- viability, T/C [14]: 31.4%
- viability, T/C [15]: 26.6%
- viability, T/C [16]: 28.5%
- viability, T/C [43]: 29.1%
- viability, T/C [44]: 25.5%
- viability, T/C [19]: 24.1%
- viability, T/C [20]: 17.1%
- viability, T/C [21]: 21.4%
- viability, T/C [22]: 19.3%
- viability, T/C [45]: 12.3%
- viability, T/C [46]: 13.7%
- viability, T/C [25]: 11.8%
- viability, T/C [26]: 10.5%
- viability, T/C [27]: 14.6%
- viability, T/C [28]: 10.5%
- viability, T/C [47]: 7.72%
- viability, T/C [48]: 5.77%
- viability, T/C [31]: 5.3%
- viability, T/C [32]: 4.95%
- viability, T/C [33]: 5.02%
- viability, T/C [34]: 5.41%

Compound: C[C@@H](NC(=O)c1ncnc(N)c1Cl)c1ncc(C(=O)Nc2cc(C(F)(F)F)c(Cl)cn2)s1 + Cc1nc(NC(=O)N2CCCC2C(N)=O)sc1-c1ccnc(C(C)(C)C(F)(F)F)c1
- IC50 (second compound 0.0316 µM): > 10000 nM
- IC50 (second compound 0.1 µM): > 10000 nM
- IC50 (second compound 0.316 µM): 2000 nM
- IC50 (second compound 1 µM): < 31.6 nM
- IC50 (second compound 3.16 µM): < 31.6 nM
- IC50 (second compound 10 µM): < 31.6 nM
- viability, T/C [1]: 89.3%
- viability, T/C [2]: 91.5%
- viability, T/C [3]: 94.9%
- viability, T/C [4]: 85.2%
- viability, T/C [5]: 82.1%
- viability, T/C [6]: 58%
- viability, T/C [7]: 69%
- viability, T/C [8]: 74.2%
- viability, T/C [9]: 73.3%
- viability, T/C [10]: 73%
- viability, T/C [11]: 75.1%
- viability, T/C [12]: 57.7%
- viability, T/C [13]: 48.3%
- viability, T/C [14]: 52.6%
- viability, T/C [15]: 49.7%
- viability, T/C [16]: 53.8%
- viability, T/C [17]: 48.8%
- viability, T/C [18]: 37.9%
- viability, T/C [19]: 29.6%
- viability, T/C [20]: 33.4%
- viability, T/C [21]: 29.2%
- viability, T/C [22]: 33%
- viability, T/C [23]: 24.9%
- viability, T/C [24]: 24.4%
- viability, T/C [25]: 15.3%
- viability, T/C [26]: 14.3%
- viability, T/C [27]: 16.9%
- viability, T/C [28]: 15.7%
- viability, T/C [29]: 16.6%
- viability, T/C [30]: 12.1%
- viability, T/C [31]: 9.78%
- viability, T/C [32]: 8.18%
- viability, T/C [33]: 11.9%
- viability, T/C [34]: 8.65%
- viability, T/C [35]: 7.27%
- viability, T/C [36]: 3.76%

Compound: Cn1ncnc1[C@H]1c2n[nH]c(=O)c3cc(F)cc(c23)N[C@@H]1c1ccc(F)cc1 + Cc1nc(NC(=O)N2CCCC2C(N)=O)sc1-c1ccnc(C(C)(C)C(F)(F)F)c1
- IC50 (second compound 0.0316 µM): > 100 nM
- IC50 (second compound 0.1 µM): > 100 nM
- IC50 (second compound 0.316 µM): < 0.316 nM
- IC50 (second compound 1 µM): < 0.316 nM
- IC50 (second compound 3.16 µM): < 0.316 nM
- IC50 (second compound 10 µM): < 0.316 nM
- viability, T/C (second compound 0.0316 µM, first compound 0.000316 µM): 88.1%
- viability, T/C (second compound 0.0316 µM, first compound 0.001 µM): 74%
- viability, T/C [37]: 68.2%
- viability, T/C [38]: 68.5%
- viability, T/C [1]: 64.8%
- viability, T/C [2]: 52.9%
- viability, T/C (second compound 0.1 µM, first compound 0.000316 µM): 66.9%
- viability, T/C (second compound 0.1 µM, first compound 0.001 µM): 67.4%
- viability, T/C [39]: 65.7%
- viability, T/C [40]: 52.4%
- viability, T/C [7]: 54.9%
- viability, T/C [8]: 52%
- viability, T/C (second compound 0.316 µM, first compound 0.000316 µM): 43.5%
- viability, T/C (second compound 0.316 µM, first compound 0.001 µM): 47.3%
- viability, T/C [41]: 49.5%
- viability, T/C [42]: 45.5%
- viability, T/C [13]: 35.4%
- viability, T/C [14]: 34.9%
- viability, T/C (second compound 1 µM, first compound 0.000316 µM): 27.5%
- viability, T/C (second compound 1 µM, first compound 0.001 µM): 31.6%
- viability, T/C [43]: 23.1%
- viability, T/C [44]: 26.2%
- viability, T/C [19]: 27.2%
- viability, T/C [20]: 21.3%
- viability, T/C (second compound 3.16 µM, first compound 0.000316 µM): 16%
- viability, T/C (second compound 3.16 µM, first compound 0.001 µM): 16.1%
- viability, T/C [45]: 12%
- viability, T/C [46]: 13%
- viability, T/C [25]: 14.1%
- viability, T/C [26]: 12%
- viability, T/C (second compound 10 µM, first compound 0.000316 µM): 7.59%
- viability, T/C (second compound 10 µM, first compound 0.001 µM): 8.2%
- viability, T/C [47]: 6.62%
- viability, T/C [48]: 6.95%
- viability, T/C [31]: 7.18%
- viability, T/C [32]: 5.36%
